Holding throughout (assay type): biochemical
One experiment has as its target T1, MMP-3 (Homo sapiens, UniProt P08254).
T1 construct: C-terminal truncated cDNA in which the cDNA encodes human prostromelysin; made in house; host or cells: E. coli
The experiment is described as follows: Test 1 Test on MMP-3 inhibiting activity (fluorogenic peptide substrate). The settings on record: activated MMP-3, 37° C.; read-out: MMP-3 inhibition activity value. How it is done: Test 1 Test on MMP-3 Inhibiting Activity
C-terminal truncated cDNA in which the cDNA encodes human prostromelysin, was subcloned (proMMP-3, cDNA sequence in Nature, 348, 699-704 (1990)), was expressed in E. coli and then, the expressed protein was purified in accordance with the method described in Biochemistry 30, 6476-6483 (1991). proMMP-3 activation was carried out by treating with 1 mM 4-aminophenyl mercuric acetate for 60 minutes at 37° C.
Enzyme activity test was conducted by the method of C. G. Knight (FEBS Lett., 296(3), 263-266 (1992)).
(§1) A mixture of activated MMP-3 (20 nM, 10 μl), buffer solution (70 μl, pH 7.5 solution containing 100 mM Tris-HCl solution, 10 mM calcium chloride solution, 100 mM sodium chloride solution and 0.05% Brij-35 solution), MOCAc-Pro-Leu-Gly-Leu-A2pr(DNP)-Ala-Arg-NH2 in 0.1% DMSO solution (100 μM, 10 μl) and a test compound in DMSO solution was incubated for 1.5 hours at 37° C. The mixture was put on a 96 well-plate (100 μl/well) and the plate was cultured at 37° C. The enzyme activity in the presence of the compound was measured based on fluorescence intensity (λex 320 nm, λem 405 nm), and IC50 was calculated.

The target in a further experiment is T2, MMP-13 (Homo sapiens, UniProt P45452).
T2 construct: a fragment of 767 bp encoding original 84 amino acids of complete MMP-13 and encoding 164 amino acids; made in house; host or cells: E. coli BL21 (DE3), pET11a
Kind of experiment: Test 2 Test on MMP-13 inhibition activity (fluorogenic peptide substrate). To be noted: activated MMP-13, 37° C.
Text: Test 2 Test on MMP-13 Inhibition Activity
In order to subcloning C-terminal truncated cDNA in which the cDNA encodes procollagenase-3 (proMMP-13) (J. Biol. Chem., 269(24), 16766-16773 (1994)), two synthesized oligonucleotide primer fragments: • (5′-[…]-3′ and 5′-[…]-3′: In former the sequence for specific NdeI site (under line) including first methionine is included, and in latter terminal codon and BamHI site (under lined) are included.) were used with human cartilage cell cDNA library for PCR. Due to these primers and Pfu DNA polymelase (STRATAGENE) for PCR, there was obtained a fragment of 767 bp encoding original 84 amino acids of complete MMP-13 and encoding 164 amino acids. The said fragment was cut out with digestion by NdeI and BamHI, and the fragment was annealed to NdeI site and BamHI site of pET11a (STRATAGENE). The recombinant plasmid was transformed into E. coli BL21 (DE3) and the bacteria were cultivated. The crude cell extract was prepared according to the method of Biochemistry. The said extract was dialyzed with 20 mM Tris-HCl (pH 7.2)/5 mM CaCl2/0.02% NaN3 solution, treated with SP-sepharose HP column (1.6×10 cm, Amasham-Pharmacia biotec), and the eluting was carried out by liner gradient from 0 to 0.3 m of sodium chloride solution (50 ml) (partially purified proMMP-13 was eluted at about 0.2M.) The eluted fraction was dialyzed with 20 mM Tris-HCl (pH 7.9)/5 mM CaCl2/200 mM (NH4)2SO4/0.02% NaN3 solution, treated with phenylsepharose HP column (1.6×5 cm, Amersham-Pharmacia biotec), and the eluting was carried out by liner gradient from 0.2M to 0M sulfuric acid ammonium solution (purified proMMP-13 was eluted at about 50 mM.). The eluted fraction was concentrated by YM-5 ultrafilter membrane, and activated by 4-aminophenyl mercuric acetate. Activated MMP-13 was treated with gel filtration chromatography in accordance with the method of Biochemistry to be separated from propeptide. Inhibiting Test Method
Enzyme activity test was carried out by the method of G. Knight (FEBS Lett., 296(3), 263-266 (1992)).
as §1, with “MMP-13” for “MMP-3”, “Briji-35” for “Brij-35”, “μl/wel),” for “μl/well)”, “incubated” for “cultured”

For the next experiment, the target named is T3, MMP-14 (MT1-MMP) (Homo sapiens, UniProt P50281).
T3 construct: purchased Biogenesis, supplied by Cosmobio (Nakarai Tesku)
Kind of experiment: Test 5 MMP-14 (MT1-MMP) inhibiting activity test. The settings on record: human recombinant MT1-MMP, 37° C.; read-out: MMP-14 inhibition activity value. How it is done:
Test 5 MMP-14 (MTI-MMP) Inhibiting Activity Test
Human recombinant MTI-MMP used the product prepared by Biogenesis and supplied by Cosmobio (Nakarai Tesku).
An assay buffer solution (70 μl, pH 7.5 solution containing 0.1M Tris-HCl solution, 0.1M calcium chloride solution, 10 mM sodium chloride solution and 0.05% Brij-35 solution), 0.1 w/w % a compound in DMSO (10 μl), MMP substrate solution (MOCAc-Pro-Leu-Gly-Leu-A2pr(DNP)-Ala-Arg-NH2 (Peptide Lab.) diluted with the assay buffer solution (50 μM, 10 μl)) and human recombinant MT1-MMP (0.4 pg/10 μl/well) were well agitated under stirring. The enzyme activity of the mixture was measured based on fluorescence intensity (λex 320 nm/λem 405 nm) by a fluorescence reader. After the mixture was incubated at 37° C. for 0.5 hour, the fluorescence intensity (λex 320 nm/λem 405 nm) was measured every hour, and IC50 was calculated.
The inhibition value was calculated by withdrawing average value of blank well from fluorescence mean value of well in which MT1-MMP was added. As the blank was used the mixed solution prepared by adding assay buffer (10 μl) instead of MT1-MMP solution.

In another experiment the target is MMP-9 (Homo sapiens, UniProt P14780). The experiment is described as follows: Test 4 MMP-9 inhibiting activity test (biotin labeled gelatin). To be noted: activated human MMP-9, biotin labeled gelatin; read-out: MMP-9 inhibition activity value. How it is done:
Test 4 MMP-9 Inhibiting Activity Test
A mixture of buffer solution (190 μl; pH 7.5 solution containing 50 mM Tris-HCl solution, 0.5 m sodium chloride solution and 5 mM calcium chloride solution), human MMP-9 (10 μl) and trypsin solution (20 μl; trypsin 3 mg in activated buffer (5 ml)) was incubated at 37° C. for 10 minutes. Thereto was added aprotinine solution (20 μl; aprotinine (3 mg) in buffer (5 ml)) and the mixture was incubated at 37° C. for 10 minutes, followed by addition of buffer (2 ml). The mixture was preserved under cooling with ice until use.
A mixture of DMSO solution (2 μl) containing definite concentration of the compound, biotin labeled gelatin (188 μl) and activated MMP-9 solution (10 μl) was put on a 96 well-assay plate (protein nonabsorbance type), well agitated, and incubated at 37° C. for 1 hour. This solution was transferred to Streptavidin-coating plate, and agitated at 15° C. to 30° C. for 30 minutes. And then the solution was washed with TTC buffer solution (200 μl) three times. Thereto was added Streptavidin-POD (200 μl) and the mixture was agitated at 15° C. to 25° C. for 60 minutes, followed by washing with TTC buffer (200 μl) three times. Then, ABTS solution (200 μl) was added thereto and after standing at room temperature for 40 minutes, furuorescence intensity was measured at 405 nm and IC50 was calculated.
In case of the above test, DMSO (2 μl) was used as a control instead of a sample solution. In the case of a blank, DMSO (2 μl) instead of the sample solution and the solution (10 μl) prepared in the same manner as preparation of […] but without adding 1.2 Uhuman MMP-9, instead of activated MMP-9 solution (10 μl), were used.

The structures appear in SMILES notation. Bounds are passed on as bounds.

T1 sequence (P08254 100-272 limits assumed): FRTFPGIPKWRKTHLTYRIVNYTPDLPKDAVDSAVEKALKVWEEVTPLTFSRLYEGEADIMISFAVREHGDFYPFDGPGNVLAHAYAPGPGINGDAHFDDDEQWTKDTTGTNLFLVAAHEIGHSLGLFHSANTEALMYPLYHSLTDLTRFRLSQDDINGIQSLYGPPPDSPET
Chain of MMP-9 (P14780 107-707 limits assumed): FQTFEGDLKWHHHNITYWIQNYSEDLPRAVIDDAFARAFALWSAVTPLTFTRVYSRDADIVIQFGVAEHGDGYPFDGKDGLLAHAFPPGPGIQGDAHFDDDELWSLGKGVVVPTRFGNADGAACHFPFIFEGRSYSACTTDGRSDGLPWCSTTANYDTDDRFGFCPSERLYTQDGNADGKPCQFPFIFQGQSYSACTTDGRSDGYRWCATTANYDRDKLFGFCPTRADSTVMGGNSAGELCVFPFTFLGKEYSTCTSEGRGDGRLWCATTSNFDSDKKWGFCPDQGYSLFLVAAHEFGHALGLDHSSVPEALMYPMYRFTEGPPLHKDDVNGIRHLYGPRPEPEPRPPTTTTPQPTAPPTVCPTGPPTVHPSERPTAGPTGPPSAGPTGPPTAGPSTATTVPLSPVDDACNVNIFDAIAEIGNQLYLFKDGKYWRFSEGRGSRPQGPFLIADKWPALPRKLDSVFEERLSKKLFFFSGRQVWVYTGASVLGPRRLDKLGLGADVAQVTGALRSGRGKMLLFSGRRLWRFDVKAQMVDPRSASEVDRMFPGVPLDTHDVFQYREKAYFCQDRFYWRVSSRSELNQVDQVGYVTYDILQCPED

Regarding `CC(C)CN(CC(=O)NO)S(=O)(=O)c1ccc(Oc2ccc(S(C)(=O)=O)cc2)cc1` [Example 5, N′^1′-Hydroxy-N′^2′-isobutyl-N′^2′-({4-[4-(methylsulfonyl)phenoxy]phenyl}sulfonyl)glycinamide], the IC50 at MMP-3 was 15.4 nM; on MMP-13, 1.3 nM; on MMP-14 (MT1-MMP), 105 nM; on MMP-9, more than 100 nM.
